Values quoted from earlier work in patent US6579533B1, “Bioabsorbable drug delivery system for local treatment and prevention of infections” (Bioasborbable Concepts, Ltd., priority 1999, dated 2003).

System: most microbial strains

In the case of O=C(O)c1cn(C2CC2)c2cc(N3CCNCC3)c(F)cc2c1=O [ciprofloxacin], the “minimum inhibition concentration (MIC)” value is given as less than 2 µg/mL.
